For series [1] the following is noted: literature value, Modasiya et al. 2012; cited from earlier work.
The nature of series [2]: Storage stability of 20 wt % SupraPlex formulations in sealed plastic vial at RT. Type of series: physicochemical. As to conditions: loaded in 20 wt % Run #65 in DI water, pH 2.5±0.5, sealed poly(propylene) vial, 12 months.
The conditions of series [3]: literature value, Chauhan et al.; cited from earlier work.
Series [4] in a line: In vitro dissolution of Polymer Adducts and Hybrid Excipients. The note with it: 0.1 N HCl pH 1.2, SGF pH 1.2, PB pH 6.8, SIF pH 6.8; 37±0.5° C. The class given is physicochemical. As to the method:
Simulated Gastric Fluid (SGF pH 1.2), Phosphate Buffer (PB pH 6.8) and Simulated Intestinal Fluid (SIF pH 6.8) as dissolution medium. […] At predetermined time intervals, 1 mL samples were withdrawn and replenished with the same volume of fresh medium. The RSV and CBD content in these samples were determined by using a UV-visible Spectrophotometer (U-3010, Hitachi, Japan) and specific amounts of RSV and CBD dissolved and were monitored and estimated as a function of time.
This multiple, hybrid excipient was then lyophilized and used for dissolution studies.

Series [5] is described as follows: Excipient assisted resveratrol water solubility enhancement. Type of series: physicochemical. As to conditions: water with the Excipients of the invention (PHC), aqueous with cosolvent or surfactant or cyclodextrin, thermodynamic from solid.
Source text: They were then examined to determine specific water solubility enhancement properties as a function of excipient composition and reaction parameters used for their syntheses.
The test system of another series is healthy male volunteers. The series can be described thus: In vivo human oral ingestion study of CBD-SupraPlex excipient. The note with it: for effects experienced within 15-30 min after ingestion: CBD-SupraPlex (Run #181) 35.6 μg/mL in DI water. As to the method: A highly documented “in house” CBD-SupraPlex® human oral ingestion study was performed to further evaluate the SupraPlex® Excipients in humans. This study involved two healthy male volunteers: Subject #1 was […], 5′10″, 190 lbs., […] an experienced CBD/THC consumer, and Subject #2 was […], 5′6″, 160 lbs., a naïve, and a THC/CBD non consumer […]).
The CBD-SupraPlex® excipient samples were prepared under sanitary, GLP conditions. All CBD dose concentrations were confirmed by standard HPLC protocols.
The CBD-SupraPlex® excipient samples used for oral ingestion were administered sequentially in three, 10 mL ingestion portions as clear, transparent DI aqueous solutions. The 1st portion was ingested in a sublingual mode and last two portions were ingested by normal swallowing. The esthetic taste features of CBD-SupraPlex® excipient (pH2), in DI water were: sour, citrus-lemon, (80% lemon-10% salt taste), slight terpene, slippery film like texture, but with no after taste. When used in ginger ale, it gave a very pleasant taste. At pH4, the sourness is eliminated to give a pleasant slight lemon taste.
Test 1: 10 mL containing 35.6 μg/mL of CBD in DI water, sublingual over 15 min. Test 2: 15 min. after Test 1, 10 mL/35.6 μg/mL of CBD in DI water, normal swallow over 15 min. Total CBD ingested=712 μg in 20 mL DI water over 30 min. Test 3: 15 min. after Test 2, repeat of Test 2 Total CBD ingested=1068 μg in 30 mL DI water over 45 min. Test 4: 2 days later, 40 mL/35.6 μg/mL of CBD in DI water, normal swallow before evening sleep. […] Subject #1 could rarely experience more than 4 hr. normal sleeper night, but after Test 4 they took a 35.6 μg/mL of CBD in 40 mL DI water, sublingual before sleep 2 days after Test 4. When taken before bedtime, about 1 mg CBD dose level gave an excellent, sustained 7-8 hr. sleep cycle with a rested, clear-headed wake-up, no fogginess or after effect.

The conditions of series [6]: Koch et al. 2020, cited from earlier work.
Series [7] in a line: CBD water solubility / solubility enhancement by UV-Visible spectrometry. The class given is physicochemical. As to conditions: for solubility: thermodynamic from solid. The protocol: The General Method used to determine the solubility of CBD is as follows:
Water (1 mL) was added to one of the vials. […] A third vial was prepared with 100 mg of the agent, 1 mL of water, and no CBD for use as a background standard for correcting UV-visible spectra. All three vials were processed (ultrasound) together to minimize variations.
CBD solubility was determined by UV-Visible spectrometry.
Three methods were used for background subtraction: • 1. For agents with very little color, the CBD is seen as a peak on the side of a peak that can be readily measured by drawing a tangent line on the interfering peak to estimate a baseline. This is usable for pure samples, such as the commercial cyclodextrins. • 2. […] For strongly colored agents, small deviations in concentration can overwhelm the CBD signal. In these cases, the full spectra are measured and the standard is multiplied by a weighting factor before subtraction. The weighting factor is adjusted to give close to a zero absorbance at many wavelengths across the difference spectrum and the CBD spectrum is what remains.
CBD concentration is calculated as the absorbance at 274 nm in excess of the retentate absorbance relative to the absorbance of the CBD standard. Abs means absorbance in Table 1.

Test in series [8]: as above
Type of series: physicochemical. The note with it: CBD 1 g in 100 mL water, Qsonica Q2000 1 hr at 100% amplitude, no excipient.

The structures appear in SMILES notation. Entries after “also recorded” stand apart in the source; their conditions may differ.

Take `COc1cc(/C=C/C(=O)CC(=O)/C=C/c2ccc(O)c(OC)c2)ccc1O` [curcumin]: the “naked curcumin solubility in DI water” value in series [1] is 2.67 µg/mL. The “solution depletion” value in series [2] is reported as “essentially no solution depletion”.
Take `Oc1ccc(C=Cc2cc(O)cc(O)c2)cc1` [resveratrol]: the “naked resveratrol solubility in DI water” value in series [3] is 0.04 µg/mL. In series [2], the “solution depletion” value is “essentially no solution depletion”. The “in vitro dissolution performance” value in series [4] was “saturation and incomplete dissolution profiles”. Besides, in series [5], the solubility fell in the range of 5010 to 30600 µg/mL.
The molecule `C=C(C)[C@@H]1CCC(C)=C[C@H]1c1c(O)cc(CCCCC)cc1O` [CBD, cannabidiol] yielded a sustained sleep cycle in the series on healthy male volunteers (Subject #1, about 1 mg CBD as CBD-SupraPlex (Run #181) before bedtime) of 7 to 8 h. In addition, the “effects experienced within 15-30 min after ingestion” value with healthy male volunteers (Subject #1, experienced consumer) is “tingling in fingers, heightened focus, higher energy, relaxed feeling, reduced anxiety, some thirst noted”; with healthy male volunteers (Subject #2, naïve non consumer), “peaceful, relaxed, reduced anxiety, remained alert/coordinated, enhanced talking, laughing, higher energy movement, then some drowsiness after 1 hr”. In addition, in [6] (literature value), the “CBD in water alone” value was 0.0000627 mg/mL. Further, the “Water Solubility of CBD” value in series [6] (no sonication) was 0.0627 µg/mL. Besides, the “increased solubility of CBD” value in [7] (in the presence of naked 2HPBCD) is 2508.7 fold; in series [7] (in the presence of naked ACD), 3066.2 fold; in series [7] (in the presence of naked GCD), 278.7 fold; in series [7] (sonication protocol in DI water, no excipient), 313.6 fold; in series [7] (with Run #1 retentate (Example 1), baseline not stated) it was 2717.8 fold; in [7] (with Run #3 retentate (Example 2), baseline not stated), 2673.2 fold. In addition, the “increased solubility of CBD” value in [7] (with Run #4 retentate (Example 3), baseline not stated) is recorded as 4843.2 fold; in series [7] (with Run #12 insoluble nanosponge suspension (Example 5), baseline not stated) it was 3797.9 fold; in [7] (with Run #19 retentate (Example 4), baseline not stated), 4634.1 fold. Moreover, the solubility is 500 to 15100 µg/mL in [7] (water with the Excipients of the invention, aqueous with cosolvent or surfactant or cyclodextrin, read-out: water solubility of CBD, enhanced); 31 µg/mL in series [7] (water, high power sonication, read-out: Water Solubility of CBD); 0.4 µg/mL in series [7] (water, low power sonication, read-out: Water Solubility of CBD). The μg-CBD in series [8] is 31.36 µg. In addition, the “solution depletion” value in series [2] was “essentially no solution depletion”. Moreover, the “in vitro dissolution performance” value in series [4] was “saturation and incomplete dissolution profiles; also recorded: insoluble”.

The term solubility denotes the dissolved amount per volume that the medium holds.

These data come from patent US20230120666A1, “EXCIPIENTS PROVIDING STABILIZATION AND ENHANCED WATER SOLUBILIZATION AND THEIR USES” (priority 2020, published 2023).
